Results as given in patent publication US4593090A, “Novel nitrosourea compounds, method for preparing same, and pharmaceutical composition containing same” (Gogo Kimura, priority 1981, dated 1986).

Assays:
[1] = test system: Leukemia L1210; test: Activity against Leukemia L1210, intraperitoneal, increase in life span of mice; type: in vivo, female mice (BDF1 family); conditions: for ED (maximum ILS) / ED30: Mus musculus, L1210, ip; for ED (maximum ILS): read-out: O.D. (optimum dosage); for ED30: read-out: ILS30; for Survivors after 60 days / Max. ILS % / Therapeutic ratio TR: ip; for Survivors after 60 days: 6-membered group; for Max. ILS %: 60-day observation, versus control; for Therapeutic ratio TR: O.D./ILS30
How it was run: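 L1210 cells (1×10^5) into abdominal cavity of female BDF1 mice, 20–23 g, n=6/group. Dosing 24 h post-implant, ip or po, qd ×5. 60-day observation; ILS% = mean survival vs untreated control; T.R. = O.D./ILS 30.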

[2] = Acute toxicity (LD50, Behrens-Karber method); type: in vivo, ICR mice; conditions: ip, mortality during 30 days; for LD50 at 720 h: mouse, in vivo
Method: Test compounds, dissolved or suspended in 0.5% aqueous CMC, were each intraperitoneally administered to ICR mice in a dose of 0.1 ml per 10 g body weight. LD50 (mg/kg) value of each test compound was calculated from the mortality of mice during 30 days by the Behrens-Karber method.

[3] = ip once a day for 5 successive days, daily dosage giving maximum increase of life span
[4] = ip once a day for 5 successive days, daily dosage increasing average survival days by 30%

| SMILES | ED (maximum ILS) [1, 3] [mg/kg] | ED30 [1, 4] [mg/kg] | Survivors after 60 days [1] | Max. ILS % [1] [%] | Therapeutic ratio TR [1] | LD50 at 720 h [2] [mg/kg] | O.D. (optimum dosage) [1, 3] [mg/kg] | ILS30 [1, 4] [mg/kg] | LD50 ([2]; 43200 min) [mg/kg] |
| --- | --- | --- | --- | --- | --- | --- | --- | --- | --- |
| CCCC(OC)O[C@H]1O[C@H](CN(CCC(C)(C)C)C(=O)N(CCCl)N=O)[C@@H](O)[C@H](O)[C@H]1O (stereo partly drawn) [Compound 191, 3-(3,3-dimethyl-n-butyl)-3-(1-methoxy-n-butyl α-D-glucopyranose-6-yl)-1-(2-chloroethyl)-1-nitrosourea] | 160 | 2.64 | 6/6 | > 700 | 60.6 | 560 | – | – | – |
| CO[C@H]1O[C@H](CO)[C@@H](O)[C@H](O)[C@H]1NC(=O)N(CCCl)N=O [Compound 2MCαG, 3-(methyl α-D-glucopyranose-2-yl)-1-(2-chloroethyl)-1-nitrosourea, reference compound] | 15.2 | 1.15 | 5/6 | > 625 | 13.2 | 46 | – | – | – |
| O=NN(CCCl)C(=O)N(Cc1ccccc1)C[C@H]1O[C@H](OC2CCCCC2)[C@H](O)[C@@H](O)[C@@H]1O [Compound 46, 3-benzyl-3-(cyclohexyl α-D-glucopyranose-6-yl)-1-(2-chloroethyl)-1-nitrosourea] | 150 | 3.9 | 4/6 | > 425 | 38.5 | 510 | – | – | – |
| CC(C)COC1OC(CO)C(N(CC2CC2)C(=O)N(CCCl)N=O)C(O)C1O [Compound 95, 3-cyclopropylmethyl-3-(isobutyl α-D-glucopyranose-4-yl)-1-(2-chloroethyl)-1-nitrosourea] | 120 | 3.82 | 3/6 | > 360 | 31.4 | 400 | – | – | – |
| O=NN(CCCl)C(=O)N(CCC1CCCC1)C[C@H]1O[C@H](OC2CCCCC2)[C@H](O)[C@@H](O)[C@@H]1O [Compound 45, 3-(2-cyclopentylethyl)-3-(cyclohexyl α-D-glucopyranose-6-yl)-1-(2-chloroethyl)-1-nitrosourea] | 180 | 4.22 | 5/6 | > 625 | 42.7 | 560 | – | – | – |
| CCOCCN(C[C@H]1O[C@H](OC2CCCCC2)[C@H](O)[C@@H](O)[C@H]1O)C(=O)N(CCCl)N=O [Compound 102, 3-(2-ethoxyethyl)-3-(cyclohexyl α-D-galactopyranose-6-yl)-1-(2-chloroethyl)-1-nitrosourea] | 200 | 3.81 | 5/6 | > 625 | 52.5 | 680 | – | – | – |
| CC(C)N(C(=O)N(CCCl)N=O)[C@@H]1CO[C@H](OC2CCCCC2)[C@H](O)[C@H]1O [Compound 148, 3-isopropyl-3-(cyclohexyl α-D-xylopyranose-4-yl)-1-(2-chloroethyl)-1-nitrosourea] | 160 | 3.81 | 4/6 | > 425 | 42.0 | 480 | – | – | – |
| CCCCO[C@H]1O[C@H](CO)[C@H](O)[C@H](O)[C@H]1N(CCC)C(=O)N(CCCl)N=O [Compound 119, 3-n-propyl-3-(n-butyl α-D-galactopyranose-2-yl)-1-(2-chloroethyl)-1-nitrosourea] | 200 | 5.95 | 3/6 | > 360 | 33.6 | 600 | – | – | – |
| CCOCCCO[C@H]1O[C@H](CN(CC(C)C)C(=O)N(CCCl)N=O)[C@@H](O)[C@H](O)[C@H]1O [Compound 32, 3-isobutyl-3-(3-ethoxy-n-propyl α-D-glucopyranose-6-yl)-1-(2-chloroethyl)-1-nitrosourea] | 170 | 2.91 | 6/6 | > 700 | 58.4 | 495 | – | – | – |
| CCC(C)O[C@@H]1OC[C@H](O)[C@H](O)[C@H]1N(CCCOC)C(=O)N(CCCl)N=O (stereo partly drawn) [Compound 158, 3-(3-methoxy-n-propyl)-3-(sec-butyl α-L-arabinopyranose-2-yl)-1-(2-chloroethyl)-1-nitrosourea] | 170 | 3.21 | 6/6 | > 700 | 53.0 | 530 | – | – | – |
| COCCCN(C(=O)N(CCCl)N=O)[C@H]1CO[C@@H](OCC(C)C)[C@H](O)[C@H]1O [Compound 154, 3-(3-methoxy-n-propyl)-3-(isobutyl α-L-arabinopyranose-4-yl)-1-(2-chloroethyl)-1-nitrosourea] | 160 | 2.85 | 5/6 | > 620 | 56.1 | 500 | – | – | – |
| CCC(C)O[C@H]1O[C@H](CN(CC(C)C)C(=O)N(CCCl)N=O)[C@@H](O)[C@H](O)[C@H]1O (stereo partly drawn) [Compound 17, 3-isobutyl-3-(sec-butyl α-D-glucopyranose-6-yl)-1-(2-chloroethyl)-1-nitrosourea] | 170 | 3.55 | 6/6 | > 700 | 47.9 | 510 | – | – | – |
| CCCCN(C[C@H]1O[C@H](OC2CCCCC2)[C@H](O)[C@@H](O)[C@H]1O)C(=O)N(CCCl)N=O [Compound 99, 3-n-butyl-3-(cyclohexyl α-D-galactopyranose-6-yl)-1-(2-chloroethyl)-1-nitrosourea] | 200 | 6.22 | 3/6 | > 330 | 32.2 | 630 | – | – | – |
| CC(C)CO[C@H]1O[C@H](CO)[C@@H](N(C(=O)N(CCCl)N=O)C2CCCCC2)[C@H](O)[C@@H]1O [Compound 137, 3-cyclohexyl-3-(isobutyl α-D-mannopyranose-4-yl)-1-(2-chloroethyl)-1-nitrosourea] | 170 | 3.74 | 4/6 | > 425 | 45.5 | 550 | – | – | – |
| C=C(C)CN(C(=O)N(CCCl)N=O)[C@@H]1[C@H](O)[C@@H](O)[C@@H](OCC(COC)OC)O[C@@H]1CO (stereo partly drawn) [Compound 130, 3-(2-methyl-2-propenyl)-3-(2,3-dimethoxy-n-propyl α-D-galactopyranose-4-yl)-1-(2-chloroethyl)-1-nitrosourea] | 160 | 5.06 | 3/6 | > 340 | 31.6 | 525 | – | – | – |
| CCCCO[C@H]1O[C@H](CO)[C@@H](O)[C@H](O)[C@H]1N(CCCC)C(=O)N(CCCl)N=O [Compound 55, 3-n-butyl-3-(n-butyl α-D-glucopyranose-2-yl)-1-(2-chloroethyl)-1-nitrosourea] | 180 | 6.05 | 3/6 | > 350 | 29.8 | 465 | – | – | – |
| O=NN(CCCl)C(=O)N(CC1CCCCC1)[C@H]1[C@@H](O)[C@@H](CO)O[C@H](OC2CCCCC2)[C@@H]1O [Compound 128, 3-cyclohexylmethyl-3-(cyclohexyl α-D-galactopyranose-3-yl)-1-(2-chloroethyl)-1-nitrosourea] | 200 | 5.99 | 3/6 | > 350 | 33.4 | 650 | – | – | – |
| CO[C@H]1O[C@H](CNC(=O)N(CCCl)N=O)[C@@H](O)[C@H](O)[C@H]1O [Compound 6MCαGM, 3-(methyl α-D-glucopyranose-6-yl)-1-(2-chloroethyl)-1-nitrosourea, reference compound] | – | – | 4/6 | > 450 | 20.1 | – | 29.1 | 1.45 | 88 |
| CC(C)CO[C@H]1O[C@H](CO)[C@@H](O)[C@H](O)[C@H]1N(Cc1ccccc1)C(=O)N(CCCl)N=O [Compound 62, 3-benzyl-3-(isobutyl α-D-glucopyranose-2-yl)-1-(2-chloroethyl)-1-nitrosourea] | 200 | 7.8 | 3/6 | > 340 | 25.6 | 565 | – | – | – |
| CC(C)CN(C[C@H]1O[C@H](OC2CCCCC2)[C@H](O)[C@@H](O)[C@@H]1O)C(=O)N(CCCl)N=O [Compound 36, 3-isobutyl-3-(cyclohexylα-D-glucopyranose-6-yl)-1-(2-chloroethyl)-1-nitrosourea] | 180 | 3.69 | 6/6 | > 700 | 48.8 | 580 | – | – | – |
| CC(C)CO[C@H]1O[C@H](CN(CC(C)C)C(=O)N(CCCl)N=O)[C@H](O)[C@H](O)[C@H]1O [Compound 107, 3-isobutyl-3-(isobutyl α-D-galactopyranose-6-yl)-1-(2-chloroethyl)-1-nitrosourea] | 200 | 5.87 | 3/6 | > 360 | 34.1 | 650 | – | – | – |
